# Tests used:
# Format in all cases: cell-based, human
# [1] = system: A549/lung adenocarcinoma cells; experiment: MTT-cell proliferation assay; settings: Homo sapiens, A549, 48 h drug exposure, mean of three experiments ± SEM
# From the text: (§1) The potential anti-cancer activity of all fourteen final synthesized compounds was investigated through MTT cytotoxic assay against two different human solid cancerous cell lines; A549/lung and MDA-MB-231/breast adenocarcinoma. The adopted cell-proliferation assay assessed % cell viability in relation to the reducing activity of cellular NADPH-dependent cellular oxidoreductases on tetrazolium dye, MTT [2,5-diphenyl-3-(4,5-dimethylthiazol-2-yl)tetrazolium bromide salt], for furnishing an easily quantified insoluble chromogenic formazan. For each drug concentration, 0.1, 1, 10, and 100 μM, the % cell-viability was estimated relative to negative control following a complete 48 h of drug treatment. Both 5-fluorouracil (5-FU) and doxorubicin (DOX) were set as positive index comparators. Moreover, the safety profile of the synthesized compounds was further investigated by examining their in-vitro cytotoxicity on non-cancerous cell line; MDCK/kidney cells.
# (§2) Evaluating the cytotoxicity of tested compounds on two cancer cell lines (A549/lung and MDA-MB-231/breast adenocarcinoma) and non-cancerous (MDCK/kidney cells) was performed while adopting the formerly described method with small alterations. Cancer cell lines were propagated within Dulbecco’s Modified Eagle Medium-High Glucose (Cat.#: P0103; DMEM_High Glucose with Na.Pyruvate and stable Glutamine, Biowest^TM, Nuaillé, France), while MDA-MB-231 cells were propagated within RPMI-1640 L-Glutamine medium (Cat.#:12-604F; Lonza-Verviers SPRL^TM, Verviers, Belgium). The culturing media were supplemented via 1% antibiotic-antimycotic 100X (Cat.#: L0010; Biowest^TM, Nuaillé, France) and 10% fetal bovine serum (FBS) (Cat.#: EU-000-H; Seralab^TM, West Sussex, UK). Cells were seeded as triplicates within 96-well plate, at 1 × 10^4 cells per well density, after being counted and viability checked using the trypan blue staining solution (Cat.# ab233465; Abcam^TM, Cambridge, MA, USA). Seeded cells were permitted to adhere for 24 h under 5% CO2 and at 37 °C incubating conditions. The assigned compounds were dissolved in 500 µL DMSO affording the stock solution (100 mM) being ready for more diluting within the whole medium to obtain the compound’s final concentrations; 0.1, 1, 10, 100 µM for cell treatments. […] Following 24 h compound-cell treatment, the medium was substituted by fresh one and cells were permitted to develop for 48 h. At four hours prior the end of incubation, 10 μL MTT Sigma-Aldrich^TM (5 mg/mL in PBS 1X without magnesium and calcium; Cat.# 17-516F, Lonza-Verviers^TM, Basel, Switzerland) were added to all wells. Following the complete 48 h incubation, 100 μL DMSO was all added to all wells where they were subsequently centrifuged at 4000 rpm for 5 min allowing the formazan crystals of formazan to precipitate. Color was established and intensities were recorded at 490 nm using Synergy-Neo2® Hybrid MultiMode Plate Reader (BioTek^TM, Winooski, VT, USA), while subtracting the multi-well plates background absorbance at 690 nm. Percentage cell viability was estimated using the subsequent formula: % cell-viability = (average absorbance of treated wells/average absorbance of controls) × 100.
# [2] = system: MDA-MB-231/breast cancer cells; experiment: MTT-cell proliferation assay; settings: 48 h drug exposure, mean of three experiments ± SEM
# From the text: as §1, §2
# [3] = system: MDA-MB-231/breast cancer cell line; experiment: DNA fragmentation assay; settings: 13 µM, 48 h and 72 h, agarose gel ladder
# Protocol: In order to delineate the mechanistic aspects of MDA-MB-231/breast cancer cell death mediated by 8b, the DNA fragmentation assay was conducted as being highly characteristic for apoptosis. […] A typical ladder pattern of internucleosomal fragmentation was observed from cell homogenates within both incubation periods (Figure 8). Such findings further confirm the significant activity of 8b as a potent inducer of apoptosis.
# DNA isolation was performed through planting MDA-MB-231/breast cells at 0.16x10^6 density, prior to incubation at 37 °C/humidified 5% CO2 overnight. Following 48 h exposure time, cells were harvested, washed and lysed via DNA-extraction buffer at 37 °C overnight. The lysate was incubated after that with 100 μg/mL […] (Cat.#: 9097.1; Carl-Roth^TM, Karlsruhe, Germany) at 37 °C for 2 h, which was followed by three extraction processes using phenol:CHCl3 (1:1 v/v) (Bioflux^TM, Selangor, Malaysia). A consequent re-extraction was done using CHCl3 and then the organic solvent was centrifuged for 5 min at 12,000 rpm within 4 °C conditions. Extracted DNA was precipitated via ice-cold 3 M sodium acetate and absolute ethanol for 1 h at –20 °C, which was then proceeded through centrifugation (15 min—at 12,000 rpm—4 °C). […]
structure (smiles),measurement,setting,value
"CCCc1ccc(-c2nn(-c3ccccc3)cc2C=NNC(=O)c2cc3ccccc3[nH]2)cc1 [Compound 8b, N′-((1-phenyl-3-(4-propylphenyl)-1H-pyrazol-4-yl)methylene)-1H-indole-2-carbohydrazide]",IC50,[1],23.1 ± 1.45 µM
same,IC50,[2],12.7 ± 2.48 µM
same,IC50,"[2]; Homo sapiens, MDA-MB-231, 48 h",~13 µM
same,DNA fragmentation,[3],Significant DNA fragmentation

# Source: publication PMC7912796, “Design, Synthesis, Anticancer Activity, and Solid Lipid Nanoparticle Formulation of Indole- and Benzimidazole-Based Compounds as Pro-Apoptotic Agents Targeting Bcl-2 Protein” (Pharmaceuticals, 2021)
